Data set [1] is described as follows: Reactivity towards nitric oxide (uv/vis). The class given is physicochemical. As to conditions: 14 μM, 90-fold excess NO, 90/10 methanol/PBS, 1 hour.
Data set [2] deals with SOD-deficient E. coli JI132. As to the kind of experiment: Aerobic growth of SOD-deficient E. coli in minimal medium. Format: cell-based. As to the method:
FIG. 13. […] The 20 mM ethanolic/albumin solution of compound was diluted into the medium. Also the growth of SOD-deficient E. coli was followed in the presence of 0.15% ethanol only (squares).
SOD activity can be monitored in the presence and absence of EDTA using the method of McCord and Fridovich (J. Biol. Chem. 244:6049 (1969)). The efficacy of a mimetic can also be determined by measuring the effect of the mimetic on the aerobic growth of a SOD null E. coli strain versus a parent strain. Specifically, parental E. coli (AB1157) and SOD null E. coli. […]
Effects on E. coli. E. coli strains AB1157 (SOD-proficient, wild type) and JI132 (SOD-deficient, sodAsodB) were obtained from J. A. Imlay (Imlay et al, J. Bacteriol. 169:2967 (1987)). […] Cultures were treated as previously described (Faulkner et al, J. Biol. Chem. 269:23471 (1994); Benov et al, J. Biol. Chem. 273:10313 (1998)). Due to the low water solubility, the compounds were solubilized with albumin in medium at a 1:1 molar ratio. Albumin itself had no effect on growth in the concentration range employed. Since methanol was toxic to the SOD-deficient strain of E. coli even when present in medium at 0.15%, the stock solutions of the compounds were prepared in ethanol.

Another data set deals with rat brain homogenates. As to the kind of experiment: Lipid peroxidation of rat brain homogenates by iron/ascorbate (TBARS). Format: biochemical. The following applies: concentration that reduced lipid peroxidation by one-half. The method, then:
The ability of mimetics to inhibit lipid peroxidation can be assessed as described by Day et al, Free Rad. Biol. Med. 26:730 (1990). Iron and ascorbate can be used to initiate lipid peroxidation in tissue homogenates and the formation of thiobarbituric acid reactive species (T BARS) measured.
Two metallotetrapyrroles were tested for antioxidant activity, in vitro. In particular, the compounds were assayed for their ability to dismutate superoxide in the indirect method that utilizes xanthine and xanthine oxidase to generate superoxide and cytochrome c reduction as indicator of superoxide flux. […] The compounds were also assayed for their ability to prevent lipid peroxidation of rat brain homogenates by iron and ascorbate. The mixture of iron and ascorbate generates reactive oxygen species that oxidize biological lipids and these oxidized lipids can be detected as species that react with thiobarbituric acid (TBARS). Both compounds could inhibit the formation of TBARS and this ability correlated with their superoxide dismutase (SOD) activity (Table 5).
b) Lipid peroxidation was initiated in rat brain homogenates with iron/ascorbate and the IC50 is the concentration of compound that reduced lipid peroxidation by one-half.

Usually IC50 stands for the concentration that inhibits the measured activity by half. Lower therefore signals inhibition by little substance.

Turning to “Manganese(III) Biliverdin IX Dimethylester [{Mn^IIIBVDME}2]”, the entries for the “reactivity towards NO (change of spectrum)” value in data set [1] and in data set [1] (listed as compound of FIG. 2C) were “No change in the spectrum” and “No reactivity towards NO has been detected”, respectively. The “growth of SOD-deficient E. coli” value in data set [2] (13 μM, after 15 hours, SOD-proficient 100%, SOD-deficient without compound 16%) is 50%. Besides, in data set [2] (0.1 to 13 μM in minimal medium), the “growth of SOD-deficient E. coli (in words)” value is “markedly improved”. For the same substance, the “effect on SOD-deficient E. coli growing under aerobic conditions (in words)” value in data set [2] (minimal (five amino acids) medium) is listed as “significant protection”. In the data set with rat brain homogenates, this substance gave a half-maximal inhibitory concentration (IC50) of 300 nM.

(Values after patent US20040039211A1, “Tetrapyrroles” (DUKE UNIVERSITY AND NATIONAL JEWISH MEDICAL AND RESEARCH …, priority 2000, published 2004).)
